Experimental data from ChEMBL document CHEMBL1275418, “IMP-15-producing Pseudomonas aeruginosa strain isolated in a U.S. medical center: a recent arrival from Mexico” (2008).

Key:
Assay type in all cases: functional
[1] = test system: Pseudomonas aeruginosa; experiment: Antibacterial activity against Pseudomonas aeruginosa 1750J expressing beta-lactamase IMP-15 by Etest
[2] = test system: Pseudomonas aeruginosa; experiment: Antibacterial activity against Pseudomonas aeruginosa isolates by Etest
[3] = test system: Pseudomonas aeruginosa; experiment: Antibacterial activity against Pseudomonas aeruginosa 1750J expressing beta-lactamase IMP-15 by Etest in presence of beta-lactamase inhibitor Tazobactam
[4] = test system: Pseudomonas aeruginosa; experiment: Antibacterial activity against Pseudomonas aeruginosa 1750J expressing beta-lactamase IMP-15 by Etest in presence of EDTA

Compound	MIC [1] [µg/mL]	MIC [2] [µg/mL]	MIC [3] [µg/mL]	MIC [4] [µg/mL]
C[C@@H](O)[C@H]1C(=O)N2C(C(=O)O)=C(SCCNC=N)C[C@H]12 [IMIPENEM ANHYDROUS]	> 32	≥ 8		
O=C(O)c1cn(C2CC2)c2cc(N3CCNCC3)c(F)cc2c1=O [CIPROFLOXACIN]	> 32			
C[C@@H](O)[C@H]1C(=O)N2C(C(=O)O)=C(S[C@@H]3CN[C@H](C(=O)N(C)C)C3)[C@H](C)[C@H]12 [MEROPENEM]	> 32	≥ 8		
NC[C@H]1O[C@H](O[C@H]2[C@H](O)[C@@H](O[C@H]3O[C@H](CO)[C@@H](O)[C@H](N)[C@H]3O)[C@H](N)C[C@@H]2N)[C@H](N)C[C@@H]1O [TOBRAMYCIN]	> 256			
GENTAMICIN	> 256			
CCN1CCN(C(=O)N[C@@H](C(=O)N[C@@H]2C(=O)N3[C@@H]2SC(C)(C)[C@@H]3C(=O)O)c2ccccc2)C(=O)C1=O [PIPERACILLIN]			> 256	
O=C(O)C1=CC[C@@H]2CC(=O)N12 [CARBAPENEM]		> 256		8
CC(C)(O/N=C(\C(=O)N[C@@H]1C(=O)N2C(C(=O)[O-])=C(C[n+]3ccccc3)CS[C@H]12)c1csc(N)n1)C(=O)O [CEFTAZIDIME]	> 256	≥ 16		
C[C@@H](O)[C@H]1C(=O)N2C(C(=O)O)=C(S[C@@H]3CN[C@H](C(=O)Nc4cccc(C(=O)O)c4)C3)[C@H](C)[C@H]12 [ERTAPENEM]	> 32			
